# Measured values from ChEMBL document CHEMBL1649156, “Antianaerobic activity of sulopenem compared to six other agents” (2009).
# Key:
# Assay type in all cases: functional
# Prevotella nigrescens = test: Antimicrobial activity in Prevotella nigrescens by CLSI agar dilution method in presence of clavulanate
# Prevotella bivia = test: Antimicrobial activity in Prevotella bivia by CLSI agar dilution method in presence of clavulanate
# Prevotella baroniae = test: Antimicrobial activity in Prevotella baroniae by CLSI agar dilution method in presence of clavulanate; conditions: Segatella baroniae
# Fusobacterium nucleatum = test: Antimicrobial activity in Fusobacterium nucleatum by CLSI agar dilution method in presence of clavulanate
# Anaerococcus tetradius = test: Antimicrobial activity in Anaerococcus tetradius by CLSI agar dilution method in presence of clavulanate
# Lactobacillus = test: Antimicrobial activity in Lactobacillus by CLSI agar dilution method in presence of clavulanate
# [1] = system: Paeniclostridium sordellii; test: Antimicrobial activity in Clostridium sordellii by CLSI agar dilution method in presence of clavulanate; conditions: Paraclostridium sordellii
# Clostridium perfringens = test: Antimicrobial activity in Clostridium perfringens by CLSI agar dilution method in presence of clavulanate
# [2] = system: Prevotella melaninogenica; test: Antimicrobial activity in Prevotella melaninogenica by CLSI agar dilution method in presence of clavulanate
# Phocaeicola vulgatus = test: Antimicrobial activity in Bacteroides vulgatus by CLSI agar dilution method in presence of clavulanate
# Fusobacterium varium = test: Antimicrobial activity in Fusobacterium varium by CLSI agar dilution method in presence of clavulanate
# [3] = system: Porphyromonas asaccharolytica; test: Antimicrobial activity in Porphyromonas asaccharolytica by CLSI agar dilution method in presence of clavulanate
# [4] = system: Peptostreptococcus anaerobius; test: Antimicrobial activity in Peptostreptococcus anaerobius by CLSI agar dilution method in presence of clavulanate
# Prevotella buccae = test: Antimicrobial activity in Prevotella buccae by CLSI agar dilution method in presence of clavulanate; conditions: Segatella buccae
# Prevotella bergensis = test: Antimicrobial activity in Prevotella bergensis by CLSI agar dilution method in presence of clavulanate; conditions: Hallella bergensis
# Bifidobacterium = test: Antimicrobial activity in Bifidobacterium by CLSI agar dilution method in presence of clavulanate
# [5] = system: Enterocloster clostridioformis; test: Antimicrobial activity in Clostridium clostridioforme by CLSI agar dilution method in presence of clavulanate
# [6] = system: Fusobacterium necrophorum; test: Antimicrobial activity in Fusobacterium necrophorum by CLSI agar dilution method in presence of clavulanate
# Prevotella denticola = test: Antimicrobial activity in Prevotella denticola by CLSI agar dilution method in presence of clavulanate
# Porphyromonas gingivalis = test: Antimicrobial activity in Porphyromonas gingivalis by CLSI agar dilution method in presence of clavulanate
# [7] = system: Parabacteroides distasonis; test: Antimicrobial activity in Bacteroides distasonis by CLSI agar dilution method in presence of clavulanate
# Bacteroides uniformis = test: Antimicrobial activity in Bacteroides uniformis by CLSI agar dilution method in presence of clavulanate
# Actinomyces = test: Antimicrobial activity in Actinomyces by CLSI agar dilution method in presence of clavulanate
# Clostridium cadaveris = test: Antimicrobial activity in Clostridium cadaveris by CLSI agar dilution method in presence of clavulanate
# Prevotella corporis = test: Antimicrobial activity in Prevotella corporis by CLSI agar dilution method in presence of clavulanate
# Prevotella disiens = test: Antimicrobial activity in Prevotella disiens by CLSI agar dilution method in presence of clavulanate
# Hoylesella oralis = test: Antimicrobial activity in Prevotella oralis group by CLSI agar dilution method in presence of clavulanate
# [Clostridium] innocuum = Antimicrobial activity in Clostridium innocuum by CLSI agar dilution method in presence of clavulanate
# [8] = system: Paraclostridium bifermentans; test: Antimicrobial activity in Clostridium bifermentans by CLSI agar dilution method in presence of clavulanate
# Prevotella veroralis = test: Antimicrobial activity in Prevotella veroralis by CLSI agar dilution method in presence of clavulanate
# Bacteroides ovatus = test: Antimicrobial activity in Bacteroides ovatus by CLSI agar dilution method in presence of clavulanate
# Bacteroides fragilis = test: Antimicrobial activity in Bacteroides fragilis by CLSI agar dilution method in presence of clavulanate
# Bacteroides stercoris = test: Antimicrobial activity in Bacteroides stercoris by CLSI agar dilution method in presence of clavulanate
# Hoylesella loescheii = test: Antimicrobial activity in Prevotella loescheii by CLSI agar dilution method in presence of clavulanate
# Parvimonas micra = test: Antimicrobial activity in Micromonas micros by CLSI agar dilution method in presence of clavulanate
# Thomasclavelia ramosa = test: Antimicrobial activity in Clostridium ramosum by CLSI agar dilution method in presence of clavulanate
# Anaerococcus prevotii = test: Antimicrobial activity in Anaerococcus prevotii by CLSI agar dilution method in presence of clavulanate
# Finegoldia magna = test: Antimicrobial activity in Finegoldia magna by CLSI agar dilution method in presence of clavulanate
# [9] = system: Peptoniphilus asaccharolyticus; test: Antimicrobial activity in Peptoniphilus asaccharolyticus by CLSI agar dilution method in presence of clavulanate
# Clostridium sp. = test: Antimicrobial activity in Clostridium sp. by CLSI agar dilution method in presence of clavulanate
# Clostridium butyricum = test: Antimicrobial activity in Clostridium butyricum by CLSI agar dilution method in presence of clavulanate
# [10] = system: Bacteroides thetaiotaomicron; test: Antimicrobial activity in Bacteroides thetaiotaomicron by CLSI agar dilution method in presence of clavulanate
# Clostridioides difficile = test: Antimicrobial activity in Clostridium difficile by CLSI agar dilution method in presence of clavulanate
# Clostridium tertium = test: Antimicrobial activity in Clostridium tertium by CLSI agar dilution method in presence of clavulanate
# Fusobacterium mortiferum = test: Antimicrobial activity in Fusobacterium mortiferum by CLSI agar dilution method in presence of clavulanate
# Tissierella praeacuta = test: Antimicrobial activity in Clostridium hastiforme by CLSI agar dilution method in presence of clavulanate
# Prevotella salivae = test: Antimicrobial activity in Prevotella salivae by CLSI agar dilution method in presence of clavulanate; conditions: Segatella salivae
# Prevotella sp. = test: Antimicrobial activity in Prevotella sp.by CLSI agar dilution method in presence of clavulanate
# Prevotella intermedia = test: Antimicrobial activity in Prevotella intermedia by CLSI agar dilution method in presence of clavulanate
# Cutibacterium acnes = test: Antimicrobial activity in Propionibacterium acnes by CLSI agar dilution method in presence of clavulanate
# Eggerthella lenta = test: Antimicrobial activity in Eggerthella lenta by CLSI agar dilution method in presence of clavulanate
smiles,measurement,setting,value
CC1(C)S[C@@H]2[C@H](NC(=O)[C@H](N)c3ccc(O)cc3)C(=O)N2[C@H]1C(=O)O [AMOXICILLIN],MIC,Prevotella nigrescens,≤ 0.125 µg/mL
same,MIC50,Prevotella nigrescens,≤ 0.125 µg/mL
same,MIC90,Prevotella nigrescens,0.5 µg/mL
same,MIC50,Prevotella bivia,0.5 µg/mL
same,MIC90,Prevotella bivia,4 µg/mL
same,MIC,Prevotella baroniae,≤ 0.125 µg/mL
same,MIC,Fusobacterium nucleatum,≤ 0.125 µg/mL
same,MIC50,Fusobacterium nucleatum,≤ 0.125 µg/mL
same,MIC90,Fusobacterium nucleatum,≤ 0.125 µg/mL
same,MIC,Anaerococcus tetradius,≤ 0.125 µg/mL
same,MIC50,Anaerococcus tetradius,≤ 0.125 µg/mL
same,MIC90,Anaerococcus tetradius,≤ 0.125 µg/mL
same,MIC50,Lactobacillus,1 µg/mL
same,MIC90,Lactobacillus,1 µg/mL
same,MIC,[1],≤ 0.125 µg/mL
same,MIC,Clostridium perfringens,≤ 0.125 µg/mL
same,MIC50,Clostridium perfringens,≤ 0.125 µg/mL
same,MIC90,Clostridium perfringens,≤ 0.125 µg/mL
same,MIC50,[2],0.25 µg/mL
same,MIC90,[2],2 µg/mL
same,MIC50,Phocaeicola vulgatus,1 µg/mL
same,MIC90,Phocaeicola vulgatus,8 µg/mL
same,MIC50,Fusobacterium varium,2 µg/mL
same,MIC90,Fusobacterium varium,2 µg/mL
same,MIC,[3],≤ 0.125 µg/mL
same,MIC50,[4],0.25 µg/mL
same,MIC90,[4],32 µg/mL
same,MIC,Prevotella buccae,≤ 0.125 µg/mL
same,MIC50,Prevotella buccae,≤ 0.125 µg/mL
same,MIC90,Prevotella buccae,1 µg/mL
same,MIC,Prevotella bergensis,0.5 µg/mL
same,MIC,Bifidobacterium,≤ 0.125 µg/mL
same,MIC50,Bifidobacterium,≤ 0.125 µg/mL
same,MIC90,Bifidobacterium,0.25 µg/mL
same,MIC,[5],1 µg/mL
same,MIC,[6],≤ 0.125 µg/mL
same,MIC50,[6],≤ 0.125 µg/mL
same,MIC50,Prevotella denticola,0.25 µg/mL
same,MIC90,Prevotella denticola,2 µg/mL
same,MIC,Porphyromonas gingivalis,≤ 0.125 µg/mL
same,MIC50,[7],4 µg/mL
same,MIC90,[7],16 µg/mL
same,MIC,Bacteroides uniformis,0.5 µg/mL
same,MIC50,Bacteroides uniformis,0.5 µg/mL
same,MIC,Actinomyces,≤ 0.125 µg/mL
same,MIC50,Actinomyces,0.25 µg/mL
same,MIC,Clostridium cadaveris,≤ 0.125 µg/mL
same,MIC,Prevotella corporis,≤ 0.125 µg/mL
same,MIC50,Prevotella corporis,≤ 0.125 µg/mL
same,MIC,Prevotella disiens,≤ 0.125 µg/mL
same,MIC50,Prevotella disiens,0.25 µg/mL
same,MIC,Hoylesella oralis,≤ 0.125 µg/mL
same,MIC,[Clostridium] innocuum,≤ 0.125 µg/mL
same,MIC,[8],0.25 µg/mL
same,MIC,Prevotella veroralis,≤ 0.125 µg/mL
same,MIC,Bacteroides ovatus,0.5 µg/mL
same,MIC50,Bacteroides ovatus,0.5 µg/mL
same,MIC90,Bacteroides ovatus,2 µg/mL
same,MIC50,Bacteroides fragilis,0.5 µg/mL
same,MIC90,Bacteroides fragilis,2 µg/mL
same,MIC,Bacteroides stercoris,0.5 µg/mL
same,MIC50,Bacteroides stercoris,1 µg/mL
same,MIC,Hoylesella loescheii,0.25 µg/mL
same,MIC,Parvimonas micra,≤ 0.125 µg/mL
same,MIC50,Parvimonas micra,≤ 0.125 µg/mL
same,MIC90,Parvimonas micra,0.5 µg/mL
same,MIC,Thomasclavelia ramosa,≤ 0.125 µg/mL
same,MIC,Anaerococcus prevotii,≤ 0.125 µg/mL
same,MIC50,Finegoldia magna,0.25 µg/mL
same,MIC90,Finegoldia magna,0.25 µg/mL
same,MIC,[9],≤ 0.125 µg/mL
same,MIC50,[9],≤ 0.125 µg/mL
same,MIC50,Clostridium sp.,0.5 µg/mL
same,MIC90,Clostridium sp.,0.5 µg/mL
same,MIC,Clostridium butyricum,1 µg/mL
same,MIC50,[10],1 µg/mL
same,MIC90,[10],4 µg/mL
same,MIC50,Clostridioides difficile,1 µg/mL
same,MIC90,Clostridioides difficile,2 µg/mL
same,MIC,Clostridium tertium,0.5 µg/mL
same,MIC50,Clostridium tertium,0.5 µg/mL
same,MIC50,Fusobacterium mortiferum,1 µg/mL
same,MIC90,Fusobacterium mortiferum,32 µg/mL
same,MIC,Tissierella praeacuta,1 µg/mL
same,MIC,Prevotella salivae,≤ 0.125 µg/mL
same,MIC,Prevotella sp.,≤ 0.125 µg/mL
same,MIC,Prevotella intermedia,≤ 0.125 µg/mL
same,MIC50,Prevotella intermedia,≤ 0.125 µg/mL
same,MIC90,Prevotella intermedia,0.5 µg/mL
same,MIC,Cutibacterium acnes,≤ 0.125 µg/mL
same,MIC50,Cutibacterium acnes,≤ 0.125 µg/mL
same,MIC90,Cutibacterium acnes,0.25 µg/mL
same,MIC50,Eggerthella lenta,1 µg/mL
same,MIC90,Eggerthella lenta,1 µg/mL
